According to patent US7256187B2, “Rifamycin C-11 oxime derivatives effective against drug-resistant microbes” (Cumbre Pharmaceuticals Inc., priority 2004, dated 2007):
Converted amounts (≈) assume the structure as drawn.

Tests used:
Type in all cases: cell-based
[1] = test system: Staphylococcus aureus ATCC29213; test: MIC, microbroth dilution; conditions: Staphylococcus aureus ATCC29213, rifS; read-out: Antimicrobial activity (MIC)
[2] = test system: Staphylococcus aureus ATCC29213 rpoB^D417Y; test: microbe, parasite or virus in culture; conditions: Staphylococcus aureus ATCC29213 rpoB^D417Y, rifR; read-out: Antimicrobial activity (MIC)
Description: (§1) Representative compounds were assayed for antimicrobial activity as follows: Minimum Inhibitory Concentrations (“MICs”) were determined by the microbroth dilution method as per NCCLS guidelines (National Committee for Clinical Laboratory Standards. 2000. Methods for dilution antimicrobial susceptibility tests for bacteria that grow aerobically, 5th ed. M7-A5. National Committee for Clinical Laboratory Standards, Wayne, Pa.), except that all growth incubations were conducted at 37° C. Bacterial cultures were tested in the following bacteriological media: S. aureus, S. epidermidis, and E. coli in Cation-Adjusted Mueller-Hinton Broth, S. pneumoniae in THY Broth supplemented with 1 mg/mL catalase under 5% CO2 atmosphere, S. pyogenes in THY Broth, E. faecalis in BHI Broth, H. influenzae in BHI Broth supplemented with 0.75 μL of 1 mg/mL NAD and 150 μL of 1 mg/ml hematin per 5 mL, and M. smegmatis in Middlebrook Broth plus ADC Enrichment.
(§2) S. aureus ATCC 29213 RpoB^H418Y is a rifampin-resistant strain with a mutation in the RpoB gene of RNA polymerase. […] S. aureus EN1252a gyrA^S84L grlA^S80F is a quinolone-resistant strain due to double gene mutations of DNA gyrase and topoisomerase IV.

[3] = test system: Staphylococcus aureus ATCC29213 rpoB^H418Y; test: microbe, parasite or virus in culture; conditions: Staphylococcus aureus ATCC29213 rpoB^H418Y, rifR; read-out: Antimicrobial activity (MIC)
Description: as §1, §2

[4] = test system: Staphylococcus aureus EN1252a gyrA^S84L grlA^S80F; test: microbe, parasite or virus in culture; conditions: Staphylococcus aureus EN1252a gyrA^S84L grlA^S80F, cipR; read-out: Antimicrobial activity (MIC)
Description: as §1, §2

[5] = test system: Staphylococcus epidermidis ATCC12228; test: MIC, microbroth dilution; conditions: Staphylococcus epidermidis ATCC12228, rifS; read-out: Antimicrobial activity (MIC)
[6] = test system: Streptococcus pneumoniae ATCC6303; test: MIC, microbroth dilution; conditions: Streptococcus pneumoniae ATCC6303, rifS; read-out: Antimicrobial activity (MIC)
[7] = test system: Streptococcus pyogenes ATCC19615; test: MIC, microbroth dilution; conditions: Streptococcus pyogenes ATCC19615, rifS; read-out: Antimicrobial activity (MIC)
[8] = test system: Enterococcus faecalis ATCC29212; test: MIC, microbroth dilution; conditions: Enterococcus faecalis ATCC29212, rifS; read-out: Antimicrobial activity (MIC)
[9] = test system: Haemophilus influenzae ATCC10211; test: MIC, microbroth dilution; conditions: Haemophilus influenzae ATCC10211, rifS; read-out: Antimicrobial activity (MIC)
[10] = test system: Escherichia coli ATCC25922; test: MIC, microbroth dilution; conditions: Escherichia coli ATCC25922, rifS; read-out: Antimicrobial activity (MIC)
[11] = test system: Mycobacterium smegmatis ATCC700084; test: MIC, microbroth dilution; conditions: Mycolicibacterium smegmatis; Mycobacterium smegmatis ATCC700084, rifS; read-out: Antimicrobial activity (MIC)

Row | Structure (SMILES) | MIC [1] [µg/mL] | MIC [2] [µg/mL] | MIC [3] [µg/mL] | MIC [4] [µg/mL] | MIC [5] [µg/mL] | MIC [6] [µg/mL] | MIC [7] [µg/mL] | MIC [8] [µg/mL] | MIC [9] [µg/mL] | MIC [10] [µg/mL] | MIC [11] [µg/mL]
1 | COCCOCO/N=C1/c2c3c(C)c(O)c4c2C(=O)C=C(NC(=O)/C(C)=C\C=C\[C@H](C)[C@H](O)[C@@H](C)[C@@H](O)[C@@H](C)[C@H](OC(C)=O)[C@H](C)[C@@H](OC)/C=C/O[C@@]1(C)O3)C4=O [Example 10, 11-Deoxy-11-methoxyethoxymethoxyiminorifamycin S] | 0.004 to 0.5 (≈ 0.00501 to 0.626 µM) | 0.25 to 32 (≈ 0.313 to 40.1 µM) | 0.125 to 16 (≈ 0.156 to 20 µM) | 0.004 to 0.5 (≈ 0.00501 to 0.626 µM) | 0.0005 to 0.063 (≈ 0.000626 to 0.0789 µM) | 0.0002 to 0.125 (≈ 0.00025 to 0.156 µM) | 0.0005 to 0.063 (≈ 0.000626 to 0.0789 µM) | 2 to 32 (≈ 2.5 to 40.1 µM) | 0.03 to 2 (≈ 0.0376 to 2.5 µM) | 0.125 to 8 (≈ 0.156 to 10 µM) | 0.5 to 64 (≈ 0.626 to 80.1 µM)
2 | C=CCO/N=C1/c2c3c(C)c(O)c4c2C(=O)C=C(NC(=O)/C(C)=C\C=C\[C@H](C)[C@H](O)[C@@H](C)[C@@H](O)[C@@H](C)[C@H](OC(C)=O)[C@H](C)[C@@H](OC)/C=C/O[C@@]1(C)O3)C4=O [Example 11, 11-Deoxy-11-allyloxyiminorifamycin S] | 0.004 to 0.5 (≈ 0.00533 to 0.666 µM) | 0.25 to 32 (≈ 0.333 to 42.6 µM) | 0.125 to 16 (≈ 0.166 to 21.3 µM) | 0.004 to 0.5 (≈ 0.00533 to 0.666 µM) | 0.0005 to 0.063 (≈ 0.000666 to 0.0839 µM) | 0.0002 to 0.125 (≈ 0.000266 to 0.166 µM) | 0.0005 to 0.063 (≈ 0.000666 to 0.0839 µM) | 2 to 32 (≈ 2.66 to 42.6 µM) | 0.03 to 2 (≈ 0.04 to 2.66 µM) | 0.125 to 8 (≈ 0.166 to 10.7 µM) | 0.5 to 64 (≈ 0.666 to 85.2 µM)
3 | CO[C@H]1/C=C/O[C@@]2(C)Oc3c(C)c(O)c4c(c3/C2=N/OCCBr)C(=O)C=C(NC(=O)/C(C)=C\C=C\[C@H](C)[C@H](O)[C@@H](C)[C@@H](O)[C@@H](C)[C@H](OC(C)=O)[C@@H]1C)C4=O [Example 12, 11-Deoxy-11-(2-bromoethoxyimino)rifamycin S] | 0.004 to 0.5 (≈ 0.00489 to 0.611 µM) | 0.25 to 32 (≈ 0.306 to 39.1 µM) | 0.125 to 16 (≈ 0.153 to 19.6 µM) | 0.004 to 0.5 (≈ 0.00489 to 0.611 µM) | 0.0005 to 0.063 (≈ 0.000611 to 0.077 µM) | 0.0002 to 0.125 (≈ 0.000245 to 0.153 µM) | 0.0005 to 0.063 (≈ 0.000611 to 0.077 µM) | 2 to 32 (≈ 2.45 to 39.1 µM) | 0.03 to 2 (≈ 0.0367 to 2.45 µM) | 0.125 to 8 (≈ 0.153 to 9.78 µM) | 0.5 to 64 (≈ 0.611 to 78.3 µM)
4 | COc1c(N2CCN(CCO/N=C3/c4c5c(C)c(O)c6c4C(=O)C=C(NC(=O)/C(C)=C\C=C\[C@H](C)[C@H](O)[C@@H](C)[C@@H](O)[C@@H](C)[C@H](OC(C)=O)[C@H](C)[C@@H](OC)/C=C/O[C@@]3(C)O5)C6=O)C(C)C2)c(F)cc2c(=O)c(C(=O)O)cn(C3CC3)c12 (some centres unmarked) [Example 13] | 0.004 to 0.5 (≈ 0.0036 to 0.45 µM) | 0.25 to 32 (≈ 0.225 to 28.8 µM) | 0.125 to 16 (≈ 0.112 to 14.4 µM) | 0.004 to 0.5 (≈ 0.0036 to 0.45 µM) | 0.0005 to 0.063 (≈ 0.00045 to 0.0566 µM) | 0.0002 to 0.125 (≈ 0.00018 to 0.112 µM) | 0.0005 to 0.063 (≈ 0.00045 to 0.0566 µM) | 2 to 32 (≈ 1.8 to 28.8 µM) | 0.03 to 2 (≈ 0.027 to 1.8 µM) | 0.125 to 8 (≈ 0.112 to 7.19 µM) | 0.5 to 64 (≈ 0.45 to 57.5 µM)
5 | CO[C@H]1/C=C/O[C@@]2(C)Oc3c(C)c(O)c4c(c3/C2=N/OCCN2CCN(c3cc5c(cc3F)c(=O)c(C(=O)O)cn5C3CC3)CC2)C(=O)C=C(NC(=O)/C(C)=C\C=C\[C@H](C)[C@H](O)[C@@H](C)[C@@H](O)[C@@H](C)[C@H](OC(C)=O)[C@@H]1C)C4=O [Example 15] | 0.004 to 0.5 (≈ 0.00374 to 0.468 µM) | 0.25 to 32 (≈ 0.234 to 30 µM) | 0.125 to 16 (≈ 0.117 to 15 µM) | 0.004 to 0.5 (≈ 0.00374 to 0.468 µM) | 0.0005 to 0.063 (≈ 0.000468 to 0.059 µM) | 0.0002 to 0.125 (≈ 0.000187 to 0.117 µM) | 0.0005 to 0.063 (≈ 0.000468 to 0.059 µM) | 2 to 32 (≈ 1.87 to 30 µM) | 0.03 to 2 (≈ 0.0281 to 1.87 µM) | 0.125 to 8 (≈ 0.117 to 7.49 µM) | 0.5 to 64 (≈ 0.468 to 59.9 µM)
6 | CO[C@H]1/C=C/O[C@@]2(C)Oc3c(C)c(O)c4c(c3/C2=N/OCCN2CCN(c3ccc(N5C[C@H](CNC(C)=O)OC5=O)cc3F)CC2)C(=O)C=C(NC(=O)/C(C)=C\C=C\[C@H](C)[C@H](O)[C@@H](C)[C@@H](O)[C@@H](C)[C@H](OC(C)=O)[C@@H]1C)C4=O [Example 16] | 0.004 to 0.5 (≈ 0.00373 to 0.466 µM) | 0.25 to 32 (≈ 0.233 to 29.8 µM) | 0.125 to 16 (≈ 0.116 to 14.9 µM) | 0.004 to 0.5 (≈ 0.00373 to 0.466 µM) | 0.0005 to 0.063 (≈ 0.000466 to 0.0587 µM) | 0.0002 to 0.125 (≈ 0.000186 to 0.116 µM) | 0.0005 to 0.063 (≈ 0.000466 to 0.0587 µM) | 2 to 32 (≈ 1.86 to 29.8 µM) | 0.03 to 2 (≈ 0.028 to 1.86 µM) | 0.125 to 8 (≈ 0.116 to 7.45 µM) | 0.5 to 64 (≈ 0.466 to 59.6 µM)
7 | CO[C@H]1/C=C/O[C@@]2(C)Oc3c(C)c(O)c4c(c3/C2=N/OCCN2CCN(c3ccccn3)CC2)C(=O)C=C(NC(=O)/C(C)=C\C=C\[C@H](C)[C@H](O)[C@@H](C)[C@@H](O)[C@@H](C)[C@H](OC(C)=O)[C@@H]1C)C4=O [Example 17] | 0.004 to 0.5 (≈ 0.00444 to 0.556 µM) | 0.25 to 32 (≈ 0.278 to 35.6 µM) | 0.125 to 16 (≈ 0.139 to 17.8 µM) | 0.004 to 0.5 (≈ 0.00444 to 0.556 µM) | 0.0005 to 0.063 (≈ 0.000556 to 0.07 µM) | 0.0002 to 0.125 (≈ 0.000222 to 0.139 µM) | 0.0005 to 0.063 (≈ 0.000556 to 0.07 µM) | 2 to 32 (≈ 2.22 to 35.6 µM) | 0.03 to 2 (≈ 0.0333 to 2.22 µM) | 0.125 to 8 (≈ 0.139 to 8.89 µM) | 0.5 to 64 (≈ 0.556 to 71.1 µM)
